Test [1] has as its target T1, urease, catalytic subunit UreB (Helicobacter pylori, UniProt P69996).
T1 construct: with UreA
The experiment in a line: cryo-EM structure at […] Å; phenol red assay on purified urease (IC50 […], Ki by Cheng-Prusoff). It counts as biochemical.

For test [2], the target named is T1, urease, catalytic subunit UreB. The experiment in a line: phenol red assay on purified urease (IC50 […], Ki by Cheng-Prusoff). Type of test: biochemical.

T1 sequence (P69996 whole entry): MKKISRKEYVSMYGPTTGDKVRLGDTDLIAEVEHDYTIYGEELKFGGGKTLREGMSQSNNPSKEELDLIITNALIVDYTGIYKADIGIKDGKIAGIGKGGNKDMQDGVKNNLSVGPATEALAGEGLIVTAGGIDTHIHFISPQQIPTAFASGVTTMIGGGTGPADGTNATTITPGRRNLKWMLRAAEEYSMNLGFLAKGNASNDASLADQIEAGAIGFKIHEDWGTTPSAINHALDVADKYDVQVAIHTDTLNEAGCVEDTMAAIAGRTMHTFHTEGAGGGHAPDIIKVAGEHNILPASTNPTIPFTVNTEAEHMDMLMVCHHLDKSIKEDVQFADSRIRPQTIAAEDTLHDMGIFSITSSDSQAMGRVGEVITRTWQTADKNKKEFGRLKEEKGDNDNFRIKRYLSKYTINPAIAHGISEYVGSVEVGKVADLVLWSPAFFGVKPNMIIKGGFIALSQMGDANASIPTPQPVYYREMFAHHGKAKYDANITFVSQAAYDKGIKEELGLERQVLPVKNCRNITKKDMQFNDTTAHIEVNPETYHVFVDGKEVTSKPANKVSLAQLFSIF
T1 sequence (P14916 whole entry, further chain): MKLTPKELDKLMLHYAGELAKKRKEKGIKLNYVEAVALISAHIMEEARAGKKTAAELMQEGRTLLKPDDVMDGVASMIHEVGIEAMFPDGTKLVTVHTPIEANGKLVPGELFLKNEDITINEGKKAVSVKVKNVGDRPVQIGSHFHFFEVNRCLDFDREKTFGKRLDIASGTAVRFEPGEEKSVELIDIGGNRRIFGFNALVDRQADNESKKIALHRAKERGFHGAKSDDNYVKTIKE

As usually defined, the Ki is the equilibrium dissociation constant of an inhibitor or competing ligand from its target. High values mean a looser hold on the target, low ones a stronger hold on the target. Turning to `OCCS` [BME, β-mercaptoethanol], the Ki in test [1] stood at 435 µM.
As to `Cc1cc(C)cc(-n2ccnc2SCC(=O)NO)c1` [SHA, 2-{[1-(3,5-dimethylphenyl)-1H-imidazol-2-yl]sulfanyl}-N-hydroxyacetamide], the affinity in test [2], expressed as Ki, was 0.63 µM.

The values are drawn from paper PMC7801526, “Cryo-EM structure of Helicobacter pylori urease with an inhibitor in the active site at 2.0 Å resolution” (Nature Communications, 2021).
